Experimental data published in publication PMC6753678, “Fueling Open Innovation for Malaria Transmission-Blocking Drugs: Hundreds of Molecules Targeting Early Parasite Mosquito Stages” (Frontiers in Microbiology, 2019).
“And” between values parts separate entries of the source, which are not always exact repeats. Identical values can stand only once. Like-named read-outs stand apart in the source and are kept apart here.

What was measured:
[1] = system: 3D7-strain P. falciparum asexual parasites; experiment: P. falciparum asexual growth inhibition assay (Pf GIA); assay type: cell-based, Plasmodium falciparum; settings: Plasmodium falciparum
How it was run: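 LDH readout: absorbance at 650 nm after 10 min at room temperature with lactate/APAD/NBT/diaphorase mix on thawed plates. Cultures (0.25% parasitemia, 2% hematocrit) were treated 72 h at 37°C in low-oxygen gas. Inhibition was normalised to 50 μM chloroquine and DMSO; n=3 biological replicates.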

HepG2 cells [2] = experiment: HepG2 cytotoxicity assay; settings: for IC50: Homo sapiens, HepG2, 48 h, read-out: IC50 HepG2
How it was run: (§1)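 Percent inhibition derived from fluorescent viability readout, normalised to DMSO (negative) and 50 μM doxorubicin (positive). Compound incubation lasted 48 h at 37°C, 5% CO2, with 2,500 HepG2 cells/well in MEM plus 10% FBS and 1% NEAA.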

[3] = system: P. berghei ookinete development; settings: for IC50: read-out: IC50 Pb ODA, dose response, at least triplicate
[4] = system: P. falciparum female gametocytes; design: method as in Miguel-Blanco et al 2017; settings: ref Miguel-Blanco et al 2017, read-out: Pf FGAA IC50, cited from earlier work
HepG2 cells [5] = settings: cited from earlier work
[6] = system: P. berghei ookinete development; experiment: microbe, parasite or virus in culture; settings: Plasmodium berghei
[7] = system: P. falciparum female gametocytes; experiment: P. falciparum female gametogenesis assay (Pf FGAA); settings: 1: YES; 0: NO
[8] = system: P. berghei oocyst intensity in Anopheles stephensi mosquitoes; experiment: P. berghei standard membrane feeding assay (Pb SMFA); settings: for inhibition at 1 µM: read-out: % inhibition Pb SMFA 1 μM (±SEM), inhibition of oocyst intensity at 1 μM
[9] = system: P. falciparum male gametocytes; experiment: P. falciparum Dual Gamete Formation Assay (Pf DGFA), male readout; settings: for Pf DGFA Male, Expt 1 / Pf DGFA Male, Expt 2 / Pf DGFA Male, Expt 3 / Pf DGFA Male, Expt 4: 1µM; for % inhibition Pf DGFA (male) 1 μM (±SEM): mean of four experiments; for inhibition at 1 µM: Plasmodium falciparum, read-out: % inhibition Pf DGFA (male) 1 μM (±SEM), 1 μM, mean of four experiments
[10] = system: P. falciparum female gametocytes; experiment: P. falciparum Dual Gamete Formation Assay (Pf DGFA), female readout; settings: for Pf DGFA Female, Expt 1 / Pf DGFA Female, Expt 2 / Pf DGFA Female, Expt 3 / Pf DGFA Female, Expt 4: 1µM; for inhibition at 1 µM: Plasmodium falciparum, read-out: % inhibition Pf DGFA (female) 1 μM (±SEM), 1 μM, mean of four experiments
HepG2 cytotoxicity assay = settings: human, HepG2 cells
How it was run: as §1

[11] = system: P. falciparum late stage (stages IV-V) gametocytes; design: method as in Almela et al 2016; settings: TCAMS screen comparison; ref Almela et al 2016; read-out: Pf GCT ATP IC50; cited from earlier work
[12] = 3D7, dose response confirmation, read-out: Pf asexual growth inhibition assays IC50
[13] = 3D7, 72 h, LDH readout, read-out: IC50 Pf Asexual
[14] = HepG2 values of the three screens unified
[15] = read-out: % inhibition, Replicate A
[16] = read-out: % inhibition, Replicate B
[17] = read-out: IC50 Pb ODA, dose response, at least triplicate
[18] = read-out: Pb ODA IC50, this manuscript
[19] = read-out: Pb Ookinete development assay IC50 (µM), dose response confirmation

Cn1c(Sc2ncnc3sccc23)nc2ccccc21 [TCMDC-124514]
IC50 [1, 12]: 187 nM
IC50 [1, 13]: 188 nM
Unified cytotox (HepG2 cells [2]; [14]): 100.00 µM
IC50 (HepG2 cells [2]): > 100000 nM
Is compound selective in assay? Pb ODA active? ([3]; 1: YES, 0: NO): 1 (1: YES)
IC50 [3]: > 250 nM and 397 nM
IC50 [4]: 1250 nM
HepG2 cytoxicity (Pf FGAA screen) (HepG2 cells [5]; HepG2, ref Miguel-Blanco et al 2017): >100 µM
inhibition at 1 µM [6, 15]: 109%
inhibition at 1 µM [6, 16]: 101%
IC50 [6, 17]: 0.398 µM
IC50 [6, 18]: 0.4 µM
Is compound selective in assay? Pf FGAA active? [7]: 1 (1: YES)
% inhibition Pb SMFA 1 μM (±SEM) ([8]; inhibition of oocyst intensity at 1 μM): 9.1%
inhibition at 1 µM [8]: 9.07%
Pf DGFA Male, Expt 1 [9]: 96.96
Pf DGFA Male, Expt 2 [9]: 90.56
Pf DGFA Male, Expt 3 [9]: 99.40
Pf DGFA Male, Expt 4 [9]: 95.50
% inhibition Pf DGFA (male) 1 μM (±SEM) [9]: 95.61%
inhibition at 1 µM [9]: 95.6%
Pf DGFA Female, Expt 1 [10]: 99.03
Pf DGFA Female, Expt 2 [10]: 87.98
Pf DGFA Female, Expt 3 [10]: 99.79
Pf DGFA Female, Expt 4 [10]: 75.95
% inhibition Pf DGFA (female) 1 μM (±SEM) ([10]; 1 μM, mean of four experiments): 90.69%
inhibition at 1 µM [10]: 90.7%

CC[C@H]1CN2CCc3cc(OC)c(OC)cc3[C@@H]2C[C@@H]1C[C@H]1NCCc2cc(OC)c(OC)cc21 [TCMDC-125531]
IC50 [1, 12]: 72 nM
IC50 at 48 h (HepG2 cytotoxicity assay): 1550 nM
Unified cytotox (HepG2 cells [2]; human): 10.78 µM
HepG2 cytoxicity (HepG2 cells [2]; value reported with the Pb ODA screen, this manuscript): 1.55 µM
IC50 [11]: 350 nM
IC50 ([4]; TCAMS screen comparison): 2730 nM
HepG2 cytoxicity (HepG2 cells [5]; value reported with the Pf FGAA screen, ref Miguel-Blanco et al 2017): 9.77 µM
HepG2 cytoxicity (HepG2 cells [5]; value reported with the Pf GCT ATP screen, ref Almela et al 2016): 21.03 µM
inhibition at 1 µM [6, 15]: 93.2%
inhibition at 1 µM [6, 16]: 121%
IC50 ([6]; read-out: Pb ODA IC50 (µM), this manuscript): 0.21 µM
IC50 [6, 19]: 0.213 µM

NC(=O)c1ccccc1Nc1nc(Nc2cccc(N3CCN(CCO)CC3)c2)ncc1Cl [TCMDC-134114]
IC50 [1, 12]: 22 nM
IC50 [1, 13]: 21.5 nM
IC50 at 48 h (HepG2 cytotoxicity assay): 41700 nM
Pb ODA (this manuscript) HepG2 cytoxicity (HepG2 cells [2]; HepG2 cytotoxicity listed with the Pb ODA data set (this manuscript)): 41.69 µM
IC50 (HepG2 cells [2]): 41700 nM
Assay tox ratio Pb ODA (red: <10-fold selectivity; green: >10-fold) [3]: 747.08
Is compound selective in assay? Pb ODA active? [3]: 1 (key: 1: YES; 0: NO)
inhibition at 1 µM [6, 15]: 106%
inhibition at 1 µM [6, 16]: 96.7%
IC50 [6, 17]: < 0.06 µM
IC50 ([6]; read-out: Pb ODA (this manuscript) IC50 (µM), P. berghei ookinete development assay, this manuscript): 0.0558 µM
IC50 [6, 19]: 0.056 µM
inhibition at 1 µM [8]: 97%
Pf DGFA Male, Expt 1 [9]: 100.00
Pf DGFA Male, Expt 2 [9]: 99.14
Pf DGFA Male, Expt 3 [9]: 99.70
Pf DGFA Male, Expt 4 [9]: 100.00
% inhibition Pf DGFA (male) 1 μM (±SEM) [9]: 99.71%
Pf DGFA Female, Expt 1 [10]: 18.27
Pf DGFA Female, Expt 2 [10]: -46.13
Pf DGFA Female, Expt 3 [10]: -5.85
Pf DGFA Female, Expt 4 [10]: -25.02
inhibition at 1 µM [10]: -14.7%

COc1ccc2ncc(F)c(CCN3CCC(NC(=O)c4ccc5c(n4)NC(=O)CS5)C(O)C3)c2n1 (stereo not drawn) [TCMDC-135907]
IC50 [1, 12]: 2020 nM
IC50 [1, 13]: 2020 nM
IC50 at 48 h (HepG2 cytotoxicity assay): 42200 nM
HepG2 cytoxicity (Pb ODA, this manuscript) (HepG2 cells [2]; HepG2, this manuscript): 42.17 µM
Unified cytotox (HepG2 cells [2]; [14]): 42.17 µM
IC50 (HepG2 cells [2]): 42200 nM
Is compound selective in assay? Pb ODA active? ([3]; 1: YES, 0: NO): 1 (1: YES)
IC50 [3]: 381 nM
inhibition at 1 µM [6, 15]: 99.8%
inhibition at 1 µM [6, 16]: 69.5%
IC50 [6, 17]: > 0.25 µM
IC50 [6, 18]: 0.38 µM
inhibition at 1 µM [8]: 56.2%
Pf DGFA Male, Expt 1 [9]: 27.09
Pf DGFA Male, Expt 2 [9]: -8.08
Pf DGFA Male, Expt 3 [9]: -8.79
Pf DGFA Male, Expt 4 [9]: 59.50
inhibition at 1 µM [9]: 17.4%
Pf DGFA Female, Expt 1 [10]: 25.41
Pf DGFA Female, Expt 2 [10]: -9.01
Pf DGFA Female, Expt 3 [10]: -10.92
Pf DGFA Female, Expt 4 [10]: -26.87
